± gives the standard deviation of the averaged measurements.
How the values were obtained:
AFIMOXIFENE [1] = compound: T1, CC/C(=C(\c1ccc(O)cc1)c1ccc(OCCN(C)C)cc1)c1ccccc1 [AFIMOXIFENE]; assay: surviving fraction relative to DMSO-only wells; higher = less growth inhibition; conditions: exposure time: 5 days
Procedure, shortened: (§1)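 Log-phase tumour cell lines were seeded at 250–500 cells per well in 384-well plates. After 24 hours they were exposed continuously for five days to inhibitors at 0.5, 1, 5, 10, 50, 100, 500 and 1000 nM. Viability was read by CellTiter-Glo luminescence after 10 minutes at room temperature, and surviving fraction is luminescence normalised to the median of DMSO-only wells. Each line was screened three times and kept only if replicate Pearson r >0.7 and median Z' >0.3.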

IMATINIB = compound: Cc1ccc(NC(=O)c2ccc(CN3CCN(C)CC3)cc2)cc1Nc1nccc(-c2cccnc2)n1 [IMATINIB]; assay: as above; conditions: exposure time: 5 days
Procedure, shortened: as §1

MK-1775 = compound: C=CCn1c(=O)c2cnc(Nc3ccc(N4CCN(C)CC4)cc3)nc2n1-c1cccc(C(C)(C)O)n1 [MK-1775]; assay: area under dose-response curve of surviving fraction (unscaled, Aref=0) (surviving fraction x log10(nM)); higher = more resistant; conditions: exposure time: 5 days; dose range 0.5-1000 nM
Procedure, shortened: (§2)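 Tumour cell lines in 384-well plates were exposed to eight inhibitor concentrations, from 0.5 to 1000 nM, for five days, and viability was read by CellTiter-Glo luminescence in three screens per line. Signals were normalised to DMSO-only wells, and 3-parameter logistic regression in the drc R package fitted dose-response survival curves to the surviving fractions. Area under the curve is given as the unscaled activity area. That area is taken over log10 dose with Aref = 0.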

AFIMOXIFENE [2] = compound: T1, AFIMOXIFENE; assay: as above; conditions: exposure time: 5 days; dose range 0.5-1000 nM
Procedure, shortened: as §2

CABOZANTINIB = compound: COc1cc2nccc(Oc3ccc(NC(=O)C4(C(=O)Nc5ccc(F)cc5)CC4)cc3)c2cc1OC [CABOZANTINIB]; assay: as above; conditions: exposure time: 5 days; dose range 0.5-1000 nM
Procedure, shortened: as §2

BLEOMYCIN = compound: Cc1c(N)nc([C@H](CC(N)=O)NC[C@H](N)C(N)=O)nc1C(=O)N[C@H](C(=O)N[C@H](C)[C@@H](O)[C@H](C)C(=O)N[C@H](C(=O)NCCc1nc(-c2nc(C(=O)NCCC[S+](C)C)cs2)cs1)[C@@H](C)O)[C@@H](OC1OC(CO)C(O)C(O)C1OC1OC(CO)C(O)C(OC(N)=O)C1O)c1cnc[nH]1 [BLEOMYCIN]; assay: as above; conditions: exposure time: 5 days; dose range 0.5-1000 nM
Procedure, shortened: as §2

Test System | surviving fraction (AFIMOXIFENE [1]; 0.5 nM) | surviving fraction (AFIMOXIFENE [1]; 1 nM) | surviving fraction (AFIMOXIFENE [1]; 5 nM) | surviving fraction (AFIMOXIFENE [1]; 10 nM) | surviving fraction (AFIMOXIFENE [1]; 50 nM) | surviving fraction (AFIMOXIFENE [1]; 100 nM) | surviving fraction (AFIMOXIFENE [1]; 500 nM) | surviving fraction (AFIMOXIFENE [1]; 1000 nM) | surviving fraction (IMATINIB; 0.5 nM) | surviving fraction (IMATINIB; 5 nM) | surviving fraction (IMATINIB; 10 nM) | surviving fraction (IMATINIB; 50 nM) | surviving fraction (IMATINIB; 100 nM) | surviving fraction (IMATINIB; 500 nM) | surviving fraction (IMATINIB; 1000 nM) | area under dose-response curve (MK-1775) | area under dose-response curve (AFIMOXIFENE [2]) | area under dose-response curve (CABOZANTINIB) | area under dose-response curve (BLEOMYCIN) | surviving fraction (IMATINIB; 1 nM)
CAL51 BREAST | 0.988 ± 0.042 | 0.966 ± 0.054 | 1.05 ± 0.1 | 0.984 ± 0.029 | 1.04 ± 0.046 | 1.05 ± 0.028 | 1.08 ± 0.036 | 0.969 ± 0.028 | 1.04 ± 0.096 | 1.08 ± 0.036 | 1.06 ± 0.055 | 1.08 ± 0.024 | 1.06 ± 0.033 | 1.1 ± 0.012 | 1.09 ± 0.054 | 2.31 | 3.36 | 3.28 | 2.39 | –
CAL72 BONE | 1.1 ± 0.045 | 1.08 ± 0.069 | 1.11 ± 0.037 | 1.12 ± 0.034 | 1.14 ± 0.082 | 1.13 ± 0.07 | 0.967 ± 0.17 | 0.832 ± 0.21 | 1.11 ± 0.14 | 1.12 ± 0.065 | 1.07 ± 0.1 | 1.15 ± 0.2 | – | 1.12 ± 0.14 | 1.14 ± 0.087 | 2.65 | 3.6 | 3.56 | 3.13 | 1.09 ± 0.11
CAL120 BREAST | 1 ± 0.031 | 0.972 ± 0.017 | 1.02 ± 0.074 | 1 ± 0.044 | 1.04 ± 0.041 | 0.994 ± 0.045 | 0.999 ± 0.031 | 0.948 ± 0.027 | 0.995 ± 0.073 | 0.994 ± 0.091 | – | 1.03 ± 0.021 | 0.97 ± 0.045 | 1.04 ± 0.044 | 0.992 ± 0.07 | 2.62 | 3.29 | 3.04 | 2.66 | 0.978 ± 0.041
CASKI CERVIX | 0.882 ± 0.064 | 0.93 ± 0.023 | 0.989 ± 0.046 | 0.977 ± 0.03 | 1.1 ± 0.071 | 1.05 ± 0.017 | 1.01 ± 0.043 | 0.9003 ± 0.0032 | 0.935 ± 0.028 | 1.01 ± 0.048 | 0.962 ± 0.029 | 1.06 ± 0.042 | 1.06 ± 0.06 | 0.919 ± 0.037 | 1 ± 0.04 | 2 | 3.25 | 3.03 | 1.94 | 0.9783 ± 0.0081
CHLA90 AUTONOMIC GANGLIA | 0.969 ± 0.013 | 0.966 ± 0.061 | 0.985 ± 0.077 | 0.98 ± 0.039 | – | 1.16 ± 0.078 | 1.09 ± 0.088 | 1.05 ± 0.11 | 1 ± 0.022 | 0.993 ± 0.063 | 0.98 ± 0.12 | 1.12 ± 0.084 | 1.02 ± 0.091 | – | 1.11 ± 0.079 | 2.46 | 3.42 | 2.95 | 2.89 | 1.02 ± 0.071
COLO320DM LARGE INTESTINE | 1.14 ± 0.071 | 1.05 ± 0.08 | 1.05 ± 0.011 | 1.11 ± 0.045 | 1.17 ± 0.079 | 1.18 ± 0.056 | 1.16 ± 0.05 | 1.13 ± 0.018 | 1.1 ± 0.17 | 1.08 ± 0.16 | 1.12 ± 0.11 | 1.12 ± 0.12 | 1.14 ± 0.098 | 1.15 ± 0.12 | 1.16 ± 0.039 | 2.44 | 3.71 | 3.68 | 3.13 | 1.14 ± 0.052
DU4475 BREAST | 0.958 ± 0.1 | 0.963 ± 0.1 | 0.964 ± 0.053 | 0.903 ± 0.057 | 0.825 ± 0.017 | 0.717 ± 0.031 | 0.872 ± 0.17 | 0.651 ± 0.11 | 1.04 ± 0.18 | – | 1.11 ± 0.13 | 1.09 ± 0.15 | – | 1.21 ± 0.049 | 1.09 ± 0.1 | 2.29 | 2.84 | 2.93 | 2.19 | 1.1 ± 0.028
H23 LUNG | 1.06 ± 0.045 | 1.05 ± 0.026 | 1.07 ± 0.05 | 1.03 ± 0.016 | 1.07 ± 0.023 | 1.09 ± 0.094 | 1.07 ± 0.08 | 1.06 ± 0.11 | 1.04 ± 0.049 | 1.06 ± 0.031 | 1.07 ± 0.0035 | 1.08 ± 0.07 | 1.13 ± 0.061 | 1.12 ± 0.066 | 1.13 ± 0.065 | 2.55 | 3.5 | 3.11 | 1.99 | 1.01 ± 0.021
HCC78 LUNG | 0.893 ± 0.16 | 0.908 ± 0.17 | 0.902 ± 0.39 | 1.05 ± 0.19 | – | 1.13 ± 0.077 | 1.29 ± 0.2 | 1.08 ± 0.094 | 0.936 ± 0.094 | 0.997 ± 0.043 | – | 1.04 ± 0.072 | – | 1.34 ± 0.16 | 1.18 ± 0.091 | 2.58 | 3.19 | 1.8 | 1.97 | 1.03 ± 0.16
HCC1395 BREAST | 1.26 ± 0.13 | 1.15 ± 0.057 | 1.33 ± 0.13 | 1.25 ± 0.048 | 1.19 ± 0.13 | 1.12 ± 0.12 | 1.04 ± 0.11 | 1.09 ± 0.16 | 1.23 ± 0.023 | 1.24 ± 0.097 | 1.36 ± 0.13 | 1.19 ± 0.16 | 1.36 ± 0.049 | 1.15 ± 0.068 | 1.11 ± 0.29 | 3.14 | 3.9 | 3.98 | 2.73 | 1.06 ± 0.11
HCT15 LARGE INTESTINE | 1.08 ± 0.077 | 1.05 ± 0.055 | 1.07 ± 0.085 | 1.06 ± 0.097 | 1.04 ± 0.054 | 1.07 ± 0.025 | 1.07 ± 0.054 | 1.09 ± 0.056 | 1.13 ± 0.027 | 1.12 ± 0.024 | 1.12 ± 0.038 | 1.15 ± 0.08 | 1.119 ± 0.011 | 1.18 ± 0.054 | 1.14 ± 0.046 | 3.01 | 3.52 | 3.2 | 2.34 | 1.1 ± 0.035
HELA CERVIX | 1.05 ± 0.063 | 1.02 ± 0.11 | 1.08 ± 0.061 | 1 ± 0.055 | 1.1 ± 0.071 | 1.11 ± 0.065 | 1.17 ± 0.058 | 1.08 ± 0.12 | 1.13 ± 0.034 | 1.03 ± 0.056 | – | – | 1.1 ± 0.016 | 1.14 ± 0.086 | 1.09 ± 0.043 | 2.7 | 3.54 | 3.33 | 3.15 | 1.04 ± 0.039
HOS BONE | 1.02 ± 0.013 | 1.03 ± 0.016 | 1.06 ± 0.012 | 1.03 ± 0.013 | 1.12 ± 0.014 | 1.08 ± 0.031 | 1.05 ± 0.024 | 0.974 ± 0.0061 | 1.03 ± 0.02 | 1.04 ± 0.028 | 1.047 ± 0.0078 | – | 1.06 ± 0.023 | 1.03 ± 0.037 | – | 2.77 | 3.46 | 3.24 | 3.03 | –
HSSYII SYNOVIAL | 0.993 ± 0.029 | 1.04 ± 0.021 | 0.989 ± 0.075 | 1.02 ± 0.055 | 1.01 ± 0.035 | 0.993 ± 0.046 | 0.921 ± 0.07 | 0.968 ± 0.05 | 1 ± 0.1 | – | 1.04 ± 0.049 | 0.966 ± 0.021 | 0.998 ± 0.033 | 0.971 ± 0.063 | 0.948 ± 0.024 | 2.05 | 3.31 | 2.98 | 2.09 | 0.967 ± 0.026
HT1080 SOFT TISSUE | 1.07 ± 0.035 | 1.08 ± 0.018 | 1.08 ± 0.037 | 1.04 ± 0.018 | 1.01 ± 0.039 | 1.04 ± 0.023 | 1.07 ± 0.042 | 1.06 ± 0.035 | 1.045 ± 0.01 | 1.1 ± 0.048 | 1.07 ± 0.021 | 1.04 ± 0.036 | 1.03 ± 0.033 | – | – | 2.2 | 3.48 | 3.29 | 2.57 | 1.074 ± 0.0023

— the supplement of paper PMC6045584
